{"source": "patent US20050228041A1", "about": "“Protective and therapeutic uses for tocotrienols” (priority 2003, published 2005)", "key": {"[1]": {"system": "HT4 neurons", "assay": "Glutamate-induced death of HT4 neurons (propidium iodide exclusion flow cytometry, cell counts)", "assay_type": "cell-based, mouse", "description": "(§1) Referring to FIG. 1, primary rat immature cortical neurons (A-C) or HT4 (D) were either treated or not with α-tocotrienol (as indicated) for 5 min and challenged with either glutamate (10 mM; A); L-homocysteic acid (1 mM; B); or buthionine sulfoximine (0.15 mM; BSO) for 24 h. […] Cells were counted at 12, 24 and 36 h after glutamate challenge.\n(§2) First, we tested for the involvement of 12-LOX in the execution of glutamate-induced death in our model. We started by using the 12-LOX specific inhibitor baicalein or BL15. Referring to FIG. 3, HT4 neurons (A) were either treated or not with a-tocotrienol (250 nM) or […] (2.5 μM, 12-lipoxygenase inhibitor) for 5 min and then challenged with glutamate (10 mM). Cell viability was determined using propidium iodide (PI) exclusion flow cytometry assay. PI−=live; PI+=dead. Rat primary immature cortical neurons (B-D) were either treated or not with α-tocotrienol (100 nM) or BL15 (2.5 μM) for 5 min and challenged either with glutamate (10 mM; B); L-homocysteic acid (1 mM; C) or buthionine sulfoximine (0.15 mM; BSO; D) for 24 h. Arachidonic acid, 50 μM for 24h. BL15, Baicalein 5,6,7-trihydroxy-flavone.\n(§3) Cell culture. Mouse hippocampal HT4 cells, were grown in Dulbecco's Modified Eagle Medium supplemented with 10% fetal calf serum, penicillin (100 U/ml) and streptomycin (100 μg/ml) at 37° C. in a humidified atmosphere containing 95% air and 5% CO2. HT4 cells were provided by Dr. D. E. Koshland Jr. (University of California at Berkeley) (Sen et al., 2000). Primary cortical neurons. Cells were isolated from the cerebral cortex of rat feti (Sprague Dawley; day 17 of gestation) or mouse feti (C57BL/6 mice, day 14 of gestation) as described (Murphy et al., 1990). For 12-LOX knockout studies, neurons were isolated from the feti of B6.129S2-Alox15^tm1Fun (Jackson Laboratory, […].). After isolation from the brain, cells were counted and seeded in culture plates at a density of 2-3×10^6 cells per 35 mm plate (Murphy et al., 1990). Cells were grown in Minimal Essential Medium (MEM) supplemented with 10% heat-inactivated fetal bovine serum, 40 μM cystine and antibiotics (100 μg/ml streptomycin, 100 units/ml penicillin, 0.25 μg/ml amphotericin). Cultures were maintained at 37° C. in 5% CO2 and 95% air in a humidified incubator. All experiments were carried out 24 h after plating.\n(§4) Treatment with neurotoxic agents. Immediately before experiments, culture media was replaced with fresh medium supplemented with serum and antibiotics. Glutamate (10 mM) was added to the media as aqueous solution (Han et al., 1997a; Sen et al., 2000; Tirosh et al., 2000). […] Other agents used to induce death in neuronal cells have been described in the pertinent figure legends.\n(§5) Vitamin E treatment. Stock solutions (10^3X of working concentration) of α-tocotrienol was prepared in ethanol. […]\n(§6) Determination of cell viability. Viability of HT4 cells was determined using propidium iodide exclusion assay using the flow cytometer as described by us previously (Sen et al., 2000; Tirosh et al., 2000). Because primary neuronal cultures tend to aggregate during flow cytometry, the viability of these cells was assessed by measuring lactate dehydrogenase (LDH) leakage (Han et al., 1997a) from cells to media 24 h following glutamate treatment using in vitro toxicology assay kit from Sigma Chemical Co. (St. Louis, Mo., USA). […]"}, "[2]": {"system": "primary neurons", "assay": "Cellular glutathione (GSH) in glutamate-treated primary neurons (HPLC-coulometric)", "assay_type": "cell-based, rat", "settings": "glutamate 10 mM; α-tocotrienol 100 nM or BL15 2.5 μM", "description": "as §2, with “5,6,7-trihydroxy-flavone. […] B-E: †, lower compared to the corresponding control non-treated group; *, higher compared to the corresponding toxin-treated group. P<0.05.” for “5,6,7-trihydroxy-flavone.”\nGlutathione assay. Glutathione (GSH) was detected using a HPLC-coulometric electrode array detector (Coularray Detector—model 5600 with 12 channels; ESA Inc., Chelmsford, Mass.). […] Glutathione was detected at channels set at following potentials: I) 600 mV, II) 700 mV; and II) 800 mV. Signals from channel set at 800 mV were used for quantification (Sen et al., 2002)."}, "[3]": {"system": "primary rat immature cortical neurons", "assay": "Neurotoxin-induced loss of viability of primary immature cortical neurons (LDH leakage)", "assay_type": "cell-based", "settings": "glutamate 10 mM, 24 h; for protection against loss of neuronal viability by neurotoxins: L-homocysteic acid 1 mM, BSO 0.15 mM, BSO + arachidonic acid 0.05 mM, α-tocotrienol (nM) 5 min before", "description": "as §1, §2, §3, §4, §5, §6"}, "[4]": {"system": "rat primary cortical neurons", "assay": "Imaging of glutamate-induced degeneration of rat primary cortical neurons (immunofluorescence, live cell imaging)", "assay_type": "cell-based", "settings": "glutamate 10 mM, α-tocotrienol 250 nM or BL15 2.5 μM 5 min before", "method": "Phase contrast images were collected once every 15 mins for 18 h from 8 h after glutamate treatment.\nFor immunofluorescence microscopy, primary cultures of rat cortical neurons were plated on 35 mm plates pre-coated with poly-L-lysine. After 24 h, cell were treated with α-tocotrienol or BL15 for 5 minutes and then challenged with glutamate or exposed to glutamate. After 24 h of glutamate exposure, cells were washed thrice in PBS, fixed for 10 minutes at room temperature in 4% paraformaldehyde, and permeabilized with PBS-T (PBS containing 0.2% Triton X-100) for 20 minutes at room temperature. Samples were then rinsed 3× with PBS-T and blocking (2% BSA in PBS-T) was done for 1 h at room temperature. After blocking, samples were incubated overnight at 4° C. with the primary antibody (anti-neurofilament 200 (1:100, Sigma St. Louis, Mo.) or neuronal class III α-tubulin (1:500, Covance Berkeley, Calif.)}. After washing with PBS (3×, 5 min each), the samples were incubated with Alexa Fluor 488 conjugated goat anti-mouse or anti-rabbit (Molecular Probes Eugene, Oreg.) secondary antibody for 45 minutes at room temperature. This was followed by three PBS washes, and mounting in aqueous medium. Fluorescent images were collected using a Zeiss Axiovert 200M microscope. Images were acquired using Axiovision 3.1.\nFor live cell imaging, primary cultures of rat cortical neurons were plated on 35 mm plates pre-coated with poly-L-lysine. […] Images were collected once every 15 minutes using a specialized phase contrast Zeiss optics suited for imaging cells growing in routine culture plates."}, "[5]": {"system": "HT4 neurons", "settings": "nM concentrations; Sen et al., 2000; cited from earlier work"}}, "note": "Entries after “also recorded” stand apart in the source; their conditions may differ."}
{"smiles": "CC(C)=CCC/C(C)=C/CC/C(C)=C/CC[C@]1(C)CCc2c(C)c(O)c(C)c(C)c2O1", "note": "[α-tocotrienol]", "values": [{"measurement": "protection against glutamate-induced toxicity / loss of cell viability of HT4", "setting": "[1]; glutamate 10 mM, tocotrienol 100 nM (nM levels) 5 min before", "result": "protect against loss of cell viability"}, {"measurement": "proliferation / growth rate of glutamate-treated HT4 cells", "setting": "[1]; tocotrienol 100 nM (nM levels), cells counted 12, 24 and 36 h after glutamate", "result": "preserve the normal growth rate"}, {"measurement": "cellular glutathione (GSH) in protected glutamate-treated primary neurons", "setting": "[2]", "result": "loss of cellular glutathione"}, {"measurement": "protection against glutamate-induced death of primary neurons", "setting": "[3]; α-tocotrienol 100 nM or BL15 2.5 μM 5 min before", "result": "protected neurons against glutamate challenge"}, {"measurement": "protection against loss of neuronal viability by neurotoxins", "setting": "[3]", "result": "protects"}, {"measurement": "protection against loss of neuronal viability by neurotoxins", "setting": "[3]; listed as α-Tocotrienol", "result": "total protection"}, {"measurement": "glutamate-induced degeneration of the neural network and neuronal growth", "setting": "[4]", "result": "resisted degeneration and continued to grow; also recorded: prevents glutamate-induced neuro-degeneration; also recorded: protection"}, {"measurement": "glutamate-induced degeneration of the neural network and neuronal growth", "setting": "[4]; listed as α-Tocotrienol", "result": "insensitive to glutamate"}, {"measurement": "protection of HT4 neurons from glutamate-induced death (previously reported)", "setting": "[5]", "result": "protects"}]}
